{"source": "patent US5374618A", "about": "“Calcitonin peptides, and gene related pharmaceutical compositions” (Celltech Limited, priority 1983, dated 1994)", "key": {"[1]": {"system": "antibody raised against Tyr-(CGRP amino acids 25-37)-amide", "assay": "Radioimmunoassay cross-reactivity with 125I-Tyr-(CGRP amino acids 25-37)-amide tracer", "assay_type": "binding, rabbit", "settings": "1:12500 dilution of serum, 1800 cpm tracer, 400 μl assay", "procedure": "Cells from a 500 ml culture were harvested and lysed in a lysozyme/sodium deoxycholate mixture (5 ml), then treated with DNase for 30 mins. at 5° C. (Emtage J. S. et al PNAS (1983), 80, p 3671-3675). […] Radioimmunoassay was carried out in 0.05M phosphate buffer pH 7.4 in a final volume of 400 ul (see Girgis, S. I. et al J. Endocrinol 78, 372-382). Antiserum was raised in rabbits, using the known techniques, against Tyr-(CGRP amino acids 25-37)-amide and conjugated to chick ovalbumin (Reichlin, M.1980, Meth.Enzymol 70 159-165) and against ^125 I Tyr-(CGRP amino acids 25-37)-amide tracer.\nThe tracer was iodinated using the Chloramine T method of Hunter and Greenwood."}, "[2]": {"system": "guinea-pig right atrial preparation", "assay": "Rate and force of contraction of isolated guinea-pig right atrium", "assay_type": "cell-based", "procedure": "Male Dunkin Hartley guinea-pigs (280-400 g) were killed by cervical dislocation and exsanguinated. The heart was removed, the right atrium dissected out and mounted under 0.5 g tension in Krebs solution (mM): NaCl 118, KCl 4.7, CaCl2 2.5, KH2 PO4 1.18, NaHCO3 25, MgSO4 1.18 and glucose 11.1, at 34° C. bubbled with 95:5 02 :CO2. Atrial force and rate were measured isometrically by a Grass FT.03 transducer and recorded on a Grass polygraph. Single doses of either human or rat CGRP were given in a random order."}, "[3]": {"system": "pentobarbitone anaesthetised rat", "assay": "Cardiovascular actions (mean arterial pressure, heart rate) after i.v. administration in anaesthetised rats", "assay_type": "in vivo", "procedure": "Groups of 4 to 6 male Sprague-Dawley rats (285-315 g) were anaesthetised with sodium pentobarbitone (60 mg Kg^-1 i.p.). The trachea, left carotid artery and left jugular vein were cannulated. Blood pressure was recorded from the carotid artery on a Grass polygraph via a Statham P23 ID pressure transducer and mean arterial pressure derived from the trace. Heart rate was measured by a tachograph (Grass model 7P4) triggered by the blood pressure signal. […] Purified rat CGRP was from the same source. All synthetic preparations were subject to mass spectrometry (M-Scan Ltd.) to confirm structure and purity before use. […] All compounds were administered intravenously except for mepyramine (s.c.). […] The peak fall in mean arterial pressure (MAP) and heart rate (HR) after 2 min was measured.\nThe mechanism of action of PDA-4 was not examined."}, "[4]": {"settings": "cumulative doses at 2 min intervals, anaesthetised rat"}}}
{"compound": "human calcitonin: human calcitonin, tested for cross-reaction in the radioimmunoassay", "values": [{"measurement": "cross-reaction with the antibody (displacement of tracer)", "setting": "[1]", "value": "does not cross-react"}]}
{"compound": "katacalcin: carboxy terminal peptide designated PDN-21 (Katacalcin) of the human calcitonin polyprotein (DMSSDLERDHRPHVSMPQNAN; Katacalcin; UniProt P01258 121-141, looked up)", "values": [{"measurement": "cross-reaction with the antibody (displacement of tracer)", "setting": "[1]", "value": "does not cross-react"}]}
{"compound": "CC(C)C[C@H](NC(=O)[C@H](CCCCN)NC(=O)CNC(=O)[C@H](CC(C)C)NC(=O)[C@@H](NC(=O)[C@@H]1CSSC[C@H](N)C(=O)N[C@@H](CO)C(=O)N[C@@H](CC(N)=O)C(=O)N[C@@H](CC(C)C)C(=O)N[C@@H](CO)C(=O)N[C@@H]([C@@H](C)O)C(=O)N1)C(C)C)C(=O)N[C@@H](CO)C(=O)N[C@@H](CCC(N)=O)C(=O)N[C@@H](CCC(=O)O)C(=O)N[C@@H](CC(C)C)C(=O)N[C@@H](Cc1c[nH]cn1)C(=O)N[C@@H](CCCCN)C(=O)N[C@@H](CC(C)C)C(=O)N[C@@H](CCC(N)=O)C(=O)N[C@H](C(=O)N[C@@H](Cc1ccc(O)cc1)C(=O)N1CCC[C@H]1C(=O)N[C@@H](CCCNC(=N)N)C(=O)N[C@H](C(=O)N[C@@H](CC(N)=O)C(=O)N[C@H](C(=O)NCC(=O)N[C@@H](CO)C(=O)NCC(=O)N[C@H](C(=O)N1CCC[C@H]1C(N)=O)[C@@H](C)O)[C@@H](C)O)[C@@H](C)O)[C@@H](C)O", "note": "[salmon calcitonin]", "values": [{"measurement": "cross-reaction with the antibody (displacement of tracer)", "setting": "[1]", "value": "does not cross-react"}]}
{"compound": "rat CGRP: synthetic rat CGRP preparation from Peninsula Laboratories", "values": [{"measurement": "potency relative to human CGRP at increasing rate (times more potent)", "setting": "[2]; isolated right atrium", "value": "approximately 10 times"}, {"measurement": "potency relative to human CGRP in evoking increases in force", "setting": "[2]; isolated right atrium", "value": "equipotent"}, {"measurement": "increase in rate or force in presence of propranolol", "setting": "[2]; propranolol", "value": "Neither the increase in rate or force produced by rat CGRP was blocked"}, {"measurement": "cross-reaction with the antibody (displacement of tracer)", "setting": "[1]", "value": "recognises antigenic determinants"}, {"measurement": "fall in mean arterial pressure (MAP)", "setting": "[3]; [4]", "value": "dose-dependent fall in MAP"}, {"measurement": "increase in heart rate (HR)", "setting": "[3]; [4]", "value": "increase in HR"}, {"measurement": "dose representing a 50% decrease in blood pressure", "setting": "[3]; pentobarbitone anaesthetised rat", "value": 0.23, "unit": "nmol/kg"}]}
{"compound": "Tyr-CGRP (amino acids 1-8): tyrosinated fragment of human CGRP, amino acids 1 to 8 (ACDTATCV; Calcitonin gene-related peptide 1 N-terminal tyrosine added; UniProt P06881 83-90, looked up, fragment)", "values": [{"measurement": "cross-reaction with the antibody (displacement of tracer)", "setting": "[1]", "value": "does not cross-react"}]}
